Reference: paper PMC4229098, “Alzheimer's Therapeutics Targeting Amyloid Beta 1–42 Oligomers I: Abeta 42 Oligomer Binding to Specific Neuronal Receptors Is Displaced by Drug Candidates That Improve Cognitive Deficits” (PLoS ONE, 2014)
Values joined by “and” are separate entries in the source; they are usually repeats but may differ in a detail not shown here. Identical values can stand only once. Like-named read-outs stand apart in the source and are kept apart here.

Tests used:
[1] = system: mature primary hippocampal and cortical cultures; assay: Membrane trafficking assay (MTT formazan exocytosis); format: cell-based, rat; conditions: for EC50: preparation dosed alone, read-out: EC50 of Abeta preparation;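 on all read-outs here: mixed neuron and glia cultures from E18 Sprague-Dawley rat embryos, grown 3 weeks in 384-well plates, labeled vesicles quantified by imaging or spectrophotometry as percent of vehicle-treated wells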
Experimental: Vesicular trafficking was measured using an adaptation of a method by Liu and Schubert [51]. […] Tetrazolium salts (3-(4,5-dimethylthiazol-2yl)-2,5diphenyl tetrazolium bromide, Roche Molecular Biochemicals) were added to a final concentration of 0.75 mM and incubated at 37°C for 60–90 min. Vesicular formazan remaining in cells was quantified by absorbance spectrometry (590 nm with 690 nm subtracted) following extraction with 1.6% Tween-20. All compounds were tested in quadruplicate wells for each concentration in at least 8 replicate experiments with data from all experiments pooled for analysis with means ± S.E.M.
The amount of labeled vesicles in treated cells is quantified by automated image processing or by spectrophotometry following extraction from cells and is calculated as a percentage of vehicle-treated values. Control wells consist of Abeta and vehicle treatment without test compounds. […] In the prevention configuration of this assay, compounds are added to neuronal cultures first, followed by oligomers. Compounds are also tested in the treatment configuration of this assay in which oligomers are added to the cultures first, followed by compound addition.

[2] = system: synaptophysin-immunopositive puncta along MAP2-labeled neurites; assay: Synapse counting assay; format: cell-based, rat; conditions: synthetic Abeta oligomers vs vehicle, 24 hrs
Experimental: Sprague-Dawley rats, 18 days pregnant, were euthanized by CO2 asphyxiation followed by cervical dislocation, and embryos were removed. Hippocampus and cortical tissue from the embryo brains were digested in 2.5% Trypsin (Life Technologies) to dissociate cells. Isolated cells were plated at a density of 4.6×10^4 cells per cm^2 in 384-well poly-D Lysine coated plates (Greiner) in Neurobasal Media (Life Technologies) supplemented with B27 (Life Technologies), Glutamax (Life Technologies) and antibiotics (penicillin, 50 units/ml and streptomycin 50 µg/ml, Life Technologies). Cultures were maintained at 37°C in 5% CO2 with weekly media change for 3 weeks prior to experimentation. These mixed cultures of hippocampal plus cortical neurons and glia were used for all of the in vitro experiments described.
Cultures were treated with compounds for 60 minutes prior to addition of 6 µM (maximum from trafficking dose-response curve) of synthetic Abeta 1–42 oligomers and incubated for 24 hrs. Cultures were fixed and immunofluorescently labeled and imaged as for the Abeta binding assay. The ThermoFisher/Cellomics Neuronal Profiling bioapplication was used to count synaptophysin-immunopositive puncta along MAP2-labeled neurites. The number of puncta per unit length of neurites was used to determine effects of treatments. To attain statistical power of 80% and a p value of less than 0.05 (determined using G*Power software), twenty replicate wells were treated per experiment plate and compared to control wells on the same plate and experiments were repeated four times.

[3] = system: neuronal synaptic puncta in hippocampal/cortical cultures; assay: Abeta binding assay, neurons (immunofluorescence of neurite puncta); set-up: species or system rat
Experimental: Alternatively, displacement of prebound oligomers was evaluated by adding oligomers 60 min prior to the addition of compounds, followed by additional 30 minutes incubation. […] Images were acquired on a Cellomics VTi automated microscope with a 20X, 0.75 NA objective and analyzed using ThermoFisher/Cellomics Neuronal Profiling bioapplication set to measure punctate labeling of Abeta and synaptophysin-1 along MAP-2 labeled neurites. […]

[4] = system: hippocampal/cortical cultures; assay: Internalization of Abeta oligomers (immunolabeling with/without detergent); format: cell-based, rat; conditions: for bound Abeta at the surface: 1 µM
Experimental: Supplementary file pone.0111898.s002.tif: Figure S2 Internalization of Abeta oligomers. After treatment with Abeta oligomers (1 µM) for 1 hr (A, B) or 2 hr (C, D), cultures were fixed and immunolabeled for Abeta either in the presence of 0.05% Triton X-100 to permeabilize cells to immunoglobulins and measure all Abeta present (A, C) or in the absence of this detergent (B, D) to detect only Abeta bound at the cell surface. […] (TIF) Click here for additional data file.

[5] = system: C57/BL6 mice injected with Abeta oligomers; assay: Contextual fear conditioning after intrahippocampal Abeta oligomer injection; format: in vivo; conditions: injected into dorsal hippocampi 24 hours prior to testing
Excerpt: All procedures were approved by the Institutional Animal Care and Use and Committee at Columbia University and Stanford University and were in compliance with the Office of Laboratory Animal Welfare and the Guide for the Care and Use of Laboratory Animals, Eighth Edition. Behavioral testing of wild-type, 3–4 month old, male, C57/BL6 mice, injected bilaterally into their hippocampus with Abeta oligomers and testing in the fear conditioning task was done according to published methods. Animals were anesthetized with […] Avertin prior to implantation of cannulas into the hippocampus. Testing of transgenic hAPP Swedish/London mice in the Morris water maze or fear conditioning tasks was done according to published methods, [38]. To measure brain concentration of drugs, brains were homogenized in 1 ml PBS per gram of brain tissue using a handheld homogenizer. Brain homogenate was then extracted with three volumes of ice cold methanol on ice for 15 minutes and centrifuged for 15 min. The supernates were analyzed by LC/MS/MS. Samples were compared to a calibration curve prepared in a similar manner by spiking blank control homogenate with standards prepared in DMSO and then extracted as above. At the end of all behavioral testing, animals were euthanized with CO2 followed by cervical dislocation.

[6] = system: glia; assay: Abeta binding assay, glia cell bodies; set-up: species or system rat
Experimental: Measurements of Abeta binding to glia were made with a separate algorithm (ThermoFisher/Cellomics Target Activation bioapplication) which identifies cells lacking MAP2 labeling. Glial cells were analyzed after separating them based on their nuclear morphology as determined by the characteristics of their DAPI labeling, as described in Fig. S1. […]
The morphology of MAP-2 negative glial nuclei labeled with DAPI was analyzed via automated image processing. […]

[7] = listed as synthetic Abeta oligomers

“synthetic oligomers (high concentration): synthetic human Abeta 1–42 oligomerized at 100 µM, 4°C, 24 hr; contains monomer [reference compound]” was tested, and the “Treatment duration for maximum response” value ([1]; Abeta preparation dosed alone) was 24 h, the EC50 [1, 7] was 0.462 ± 0.056 µM and the EC50 [1] was 0.46 µM. For the same substance, the “loss of synaptophysin-immunoreactive puncta” value ([2]; listed as Oligomers) was 18%±2, the “loss of synaptophysin-immunoreactive puncta” value [2, 7] was 18% and the “bound puncta colocalizing with synaptophysin presynaptic terminals” value ([3]; 440 nM total Abeta, 60 minutes) was 37%±3%. For the same substance, the Kd ([3]; 60 min treatment, read-out: Kd Site 1 (high affinity), neurons synaptic puncta) was 0.518 µM, the “bound Abeta at the surface” value ([4]; 1 hr exposure) was 96%±8% and the “bound Abeta internalized” value ([4]; 2 hr exposure, listed as Abeta oligomers) was 27%±8% and 27±8%. The “bound Abeta at the surface” value ([4]; 2 hrs exposure) was 73%±3%, the “effect of Abeta oligomers on contextual fear memory” value [5] was “cause a deficit in contextual fear conditioning-dependent associative memory” and the Kd ([6]; non-saturable site, read-out: Kd Site 2, glia cell bodies with condensed/asymmetric nuclear morphology) was over 1000 µM. It also gave a Kd ([6]; read-out: Kd Site 1 (high affinity), glia cell bodies with condensed/asymmetric nuclear morphology) of 0.289 µM.
